Where two headings read alike, the source gives them in different places.
Legend:
[1] = target: T1, cytoplasmic domain of the human CSF-1R (Homo sapiens, UniProt P07333); experiment: In vitro kinase assay for colony stimulating factor-1 receptor (AlphaScreen); format: biochemical; conditions: tested at about 1 μM, read-out: CSF-1R percent inhibition
T1 construct: Recombinant protein corresponding to the cytoplasmic domain of the human CSF-1R; purchased Invitrogen Corporation, Carlsbad, Calif; PV3249
T1 sequence (P07333 539-972 limits assumed): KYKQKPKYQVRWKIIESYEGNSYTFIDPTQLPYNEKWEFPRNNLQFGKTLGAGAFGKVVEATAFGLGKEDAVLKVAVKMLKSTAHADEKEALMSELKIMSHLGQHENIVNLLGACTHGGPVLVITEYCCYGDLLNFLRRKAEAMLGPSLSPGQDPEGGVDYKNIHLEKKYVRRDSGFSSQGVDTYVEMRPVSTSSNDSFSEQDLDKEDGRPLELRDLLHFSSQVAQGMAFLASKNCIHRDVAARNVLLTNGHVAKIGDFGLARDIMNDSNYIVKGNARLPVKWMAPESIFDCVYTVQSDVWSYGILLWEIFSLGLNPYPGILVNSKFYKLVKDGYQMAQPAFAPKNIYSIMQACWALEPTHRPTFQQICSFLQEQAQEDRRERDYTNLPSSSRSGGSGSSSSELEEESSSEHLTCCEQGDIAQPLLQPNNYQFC
Outline: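 Test compounds, serially diluted threefold starting at 25 μM, were mixed with Hepes buffer (pH 7.5, Mg2+/Mn2+, DTT, BSA, Tween 80) containing 1 μM ATP. Recombinant kinase was present at 4 nM. After stopping, beads were added and plates were read the next day by AlphaScreen.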

[2] = target: T2, kinase domain of PDGFRβ (Homo sapiens, UniProt P09619); experiment: Inhibition of PDGFRb kinase signaling in an in vitro biochemical assay (alphascreen); conditions: tested at about 1 μM, read-out: PDGFRβ percent inhibition
T2 construct: The kinase domain of PDGFRβ was assayed in 50 mM Hepes; purchased Invitrogen P3082
T2 sequence (P09619 600-962 limits assumed): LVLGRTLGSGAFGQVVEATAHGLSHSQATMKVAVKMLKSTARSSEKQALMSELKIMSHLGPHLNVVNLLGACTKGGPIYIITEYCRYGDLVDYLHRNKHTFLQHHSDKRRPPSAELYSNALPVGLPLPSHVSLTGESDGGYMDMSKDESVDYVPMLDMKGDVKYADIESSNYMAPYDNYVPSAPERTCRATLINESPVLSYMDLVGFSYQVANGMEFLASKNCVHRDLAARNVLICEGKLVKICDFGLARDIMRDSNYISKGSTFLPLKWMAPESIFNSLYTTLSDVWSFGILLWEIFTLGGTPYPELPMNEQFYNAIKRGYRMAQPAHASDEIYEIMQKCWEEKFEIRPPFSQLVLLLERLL

[3] = target: T3, kinase domain of cKIT (Homo sapiens, UniProt P10721); experiment: Inhibition of cKIT kinase signaling in an in vitro biochemical assay (alphascreen); conditions: tested at about 1 μM, read-out: cKit percent inhibition
T3 construct: The kinase domain of cKIT was assayed in 50 mM Hepes; purchased Upstate 14-559
T3 sequence (P10721 589-937 limits assumed): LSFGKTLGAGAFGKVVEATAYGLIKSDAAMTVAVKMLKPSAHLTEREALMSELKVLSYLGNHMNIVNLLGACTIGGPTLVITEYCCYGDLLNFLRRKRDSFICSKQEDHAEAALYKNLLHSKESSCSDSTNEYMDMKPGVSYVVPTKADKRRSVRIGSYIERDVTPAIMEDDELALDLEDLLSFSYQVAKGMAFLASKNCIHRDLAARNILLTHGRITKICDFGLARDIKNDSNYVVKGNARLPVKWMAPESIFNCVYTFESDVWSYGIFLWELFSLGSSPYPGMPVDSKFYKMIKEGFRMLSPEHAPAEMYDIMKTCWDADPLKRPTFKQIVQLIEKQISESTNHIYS

[4] = system: MNFS60 (murine AML cells); experiment: Cell viability assay in MCSF dependent MNFS60 cells (Cell Titer Glo); format: cell-based; conditions: Mus musculus, tested at about 1 μM, read-out: M-NFS-60 CP percent inhibition
Method: Cell viability was assessed by Cell Titer Glo, Promega. […] Test compounds were serially diluted (3 fold) in DMSO to 500× the final concentration. […] Final concentration of MCSF is 10 ng/ml. Cells were incubated for 72 hrs at 37° C., 5% CO2. After the incubation 100 μl Cell Titer Glo is added to each well to determine viable cells. The assay was performed according to the manufacturer's instruction (Promega Corporation, Madison, Wis. USA). Each experimental condition was performed in triplicate. Raw data was imported in Abase and EC50s calculated with XL-fit data analysis software.

Row | inhibition at 1 µM [1] | inhibition at 1 µM [2] | inhibition at 1 µM [3] | inhibition at 1 µM ([1]; compounds of Table 3) | inhibition at 1 µM ([2]; compounds of Table 3) | inhibition at 1 µM ([3]; compounds of Table 3) | Structure (SMILES) | inhibition at 1 µM ([4]; MNFS60 cells) | inhibition at 1 µM ([4]; compounds of Table 3)
1 | 98% | 0% | 9% | – | – | – | CNC(=O)c1cc(Oc2ccc3nc(NCc4c(Cl)cccc4Cl)oc3c2)ccn1 [Compound 76, 4-[2-(2,6-Dichloro-benzylamino)-benzooxazol-6-yloxy]-pyridine-2-carboxylic acid methylamide] | 0% | –
2 | 99% | 1% | 12% | – | – | – | COCCNC(=O)c1cc(Oc2ccc3nc(NCC4CCCCC4)sc3c2)ccn1 [Compound 159, 4-(2-(cyclohexylmethyl-amino)benzothiazol-6-yloxy)-N-(2-methox.ylethyl)-pyridine-2-carboxamide] | 17% | –
3 | – | – | – | 100% | 26% | 70% | FC(F)(F)Oc1ccc2c(Oc3ccc4nc(NCC5CCCCC5)sc4c3)ccnc2c1 [Example 228, N-(cyclohexylmethyl)-6-(7-(trifluoromethoxy)quinolin-4-yloxy)benzo[d]thiazol-2-amine] | – | 32%
4 | 100% | 18% | 100% | – | – | – | CNC(=O)c1cc(Oc2ccc3nc(NCc4c(F)cccc4OC)oc3c2)ccn1 [Compound 116, 4-[2-(2-Fluoro-6-methoxy-benzylamino)-benzooxazol-6-yloxy]-pyridine-2-carboxylic acid methylamide] | 10% | –
5 | – | – | – | 100% | 37% | 100% | CNC(=O)c1cc(Oc2ccc3nc(NCc4ccccc4)sc3c2)ccn1 [Compound 138] | – | 105%
6 | 100% | 30% | 9% | – | – | – | CNC(=O)c1cc(Oc2ccc3nc(NCc4c(Cl)cccc4OC)oc3c2)ccn1 [Compound 121, 4-[2-(2-Chloro-6-methoxy-benzylamino)-benzooxazol-6-yloxy]-pyridine-2-carboxylic acid methylamide] | 17% | –
7 | – | – | – | 100% | 0% | 69% | c1ccc2c(c1)CCC[C@@H]2Nc1nc2ccc(Oc3ccnc4ccccc34)cc2s1 [Example 249, (S)-6-(quinolin-4-yloxy)-N-(1,2,3,4-tetrahydronaphthalen-1-yl)benzo[d]thiazol-2-amine] | – | 100%
8 | – | – | – | 99% | 23% | 16% | CNC(=O)c1cc(Oc2ccc3nc(N[C@@H]4CC=CC[C@@H]4C(N)=O)sc3c2)ccn1 [Example 217] | – | 0%
9 | – | – | – | 100% | 20% | 57% | N#Cc1ccc(-c2cc(Oc3ccc4nc(N[C@@H]5CCCC[C@H]5O)sc4c3)ccn2)cn1 [Example 287, 4-(2-((1R,2R)-2-hydroxycyclohexylamino)benzo[d]thiazol-6-yloxy)-2,3'-bipyridine-6'-carbonitrile] | – | 35%
10 | 99% | 2% | 11% | – | – | – | CNC(=O)c1cc(Oc2ccc3nc(NCc4c(Cl)cccc4Cl)sc3c2)ccn1 [Compound 158, 4-[2-(2,6-Dichloro-benzylamino)-benzothiazol-6-yloxy]-pyridine-2-carboxylic acid methylamide] | 1% | –
11 | – | – | – | 100% | 56% | 64% | CC[C@H](C)[C@@H](CO)Nc1nc2ccc(Oc3ccnc4ccccc34)cc2s1 [Example 234, (2S,3S)-3-methyl-2-(6-(quinolin-4-yloxy)benzo[d]thiazol-2-ylamino)pentan-1-ol] | – | 78%
12 | – | – | – | 100% | 21% | 29% | CNC(=O)c1cc(Oc2ccc3nc(N[C@H](C)C(C)C)sc3c2)ccn1 [Compound 149] | – | 48%
13 | 100% | 31% | 34% | – | – | – | CNC(=O)c1cc(Oc2ccc3nc(Nc4cccc(CCN5CCOCC5)c4)oc3c2)ccn1 [Compound 74, 4-{2-[3-(2-Morpholin-4-yl-ethyl)-phenylamino]-benzo-oxazol-6-yloxy}-pyridine-2-carboxylic acid methylamide] | 14% | –
14 | 99% | – | 14% | – | – | – | CNC(=O)c1cc(Oc2ccc3nc(Nc4cccc5c4OCCO5)oc3c2)ccn1 [Compound 94, 4-[2-(2,3-Dihydro-benzo-[1,4]dioxin-5-ylamino)-benzooxazol-6-yloxy]-pyridine-2-carboxylic acid methylamide] | 28% | –
15 | 99% | – | 98% | – | – | – | CNC(=O)c1cc(Oc2ccc3nc(NCc4ccc(OC)cc4OC)oc3c2)ccn1 [Compound 92, 4-[2-(2,4-Dimethoxy-benzyl-amino)-benzooxazol-6-yloxy]-pyridine-2-carboxylic acid methylamide] | 17% | –
16 | 99% | 12% | – | – | – | – | CCOc1ccccc1Nc1nc2ccc(Oc3ccnc(C(=O)NC)c3)cc2o1 [Compound 12, 4-[2-(2-Ethoxy-phenylamino)-benzooxazol-6-yloxy]-pyridin-2-carboxylic acid methylamide] | 30% | –
17 | 84% | 0% | – | – | – | – | CNC(=O)c1cc(Oc2ccc3nc(Nc4ccccc4CCN4CCOCC4)oc3c2)ccn1 [Compound 48, 4-{2-[2-(2-Morpholin-4-yl-ethyl)-phenylamino]-benzo-oxazol-6-yloxy}-pyridine-2-carboxylic acid methylamide] | 0% | –
18 | 99% | – | 42% | – | – | – | CNC(=O)c1cc(Oc2ccc3nc(NCc4c(F)cccc4F)oc3c2)ccn1 [Compound 87, 4-[2-(2,6-Difluoro-benzylamino)-benzooxazol-6-yloxy]-pyridine-2-carboxylic acid methylamide] | 21% | –
19 | 100% | 2% | – | – | – | – | CC[C@@H](Nc1nc2ccc(Oc3ccnc(C(=O)NC)c3)cc2o1)c1ccccc1 [Compound 19, 4-[2-((R)-1-Phenyl-propyl-amino)-benzooxazol-6-yloxy]-pyridine-2-carboxylic acid methylamide] | 36% | –
20 | 99% | – | 22% | – | – | – | CNC(=O)c1cc(Oc2ccc3nc(NCc4ccc(OC)c(OC)c4)oc3c2)ccn1 [Compound 90, 4-[2-(3,4-Dimethoxy-benzyl-amino)-benzooxazol-6-yloxy]-pyridine-2-carboxylic acid methylamide] | 18% | –
21 | 99% | 20% | – | – | – | – | CNC(=O)c1cc(Oc2ccc3nc(NC4CCCCC4)oc3c2)ccn1 [Compound 24, 4-(2-Cyclohexylamino-benzooxazol-6-yloxy)-pyridine-2-carboxylic acid methylamide] | 12% | –
22 | 99% | 51% | – | – | – | – | CC(=O)Nc1cc(Oc2ccc3nc(NC4CCCCC4)oc3c2)ccn1 [Compound 29, N-[4-(2-Cyclohexylamino-benzooxazol-6-yloxy)-pyridin-2-yl]-acetamide] | 0% | –
